Measurements: ChEMBL document CHEMBL1155920, “Effects of the aryl linker and the aromatic substituent on the anti-HCV activities of aryl diketoacid (ADK) analogues” (Bioorg Med Chem Lett, 2008)
pEC50, pIC50: −log10 of the molar value.

Key:
Hepatitis C virus [1] = assay: Inhibition of recombinant HCV 1b NS5B deltac21 RNA polymerase by scintillator counting; design: species or system Hepatitis C virus subtype 1b
Hepatitis C virus [2] = assay: Antiviral activity against HCV subgenomic replicon harboring NS5B gene transfected in human Huh7 cells; type: functional, Hepacivirus hominis; conditions: Huh-7
[3] = Cytotoxicity against human Huh7 cells; type: cell-based, Huh-7
[4] = Inhibition of HCV RNA-dependent RNA polymerase; design: species or system Hepacivirus hominis

For `O=C(O)/C(O)=C/C(=O)c1cccc(OCc2ccc(Cl)cc2)c1`, the pIC50 (Hepatitis C virus [1]) was 4.55, the pEC50 (Hepatitis C virus [2]) was < 4.30 and the CC50 [3] was > 100 µM.

In the case of `O=C(O)/C(O)=C/C(=O)c1ccc(OCc2ccc(Cl)cc2)cc1`, the pIC50 (Hepatitis C virus [1]) was 5.82, the pEC50 (Hepatitis C virus [2]) was 5.51 and the CC50 [3] was > 100 µM.

In the case of `O=C(O)/C(O)=C/C(=O)c1cccc(NCc2ccc(Cl)cc2)c1`, the pIC50 (Hepatitis C virus [1]) was 6.02, the pEC50 (Hepatitis C virus [2]) was 6.09 and the CC50 [3] was > 100 µM.

For `O=C(O)/C(O)=C/C(=O)c1ccccc1OCc1ccc(Cl)cc1`, the pIC50 (Hepatitis C virus [1]) was 5.70, the pEC50 (Hepatitis C virus [2]) was 6.27 and the CC50 [3] was > 100 µM.

In the case of `O=C(O)/C(O)=C/C(=O)c1ccccc1OCc1ccccc1`, the pIC50 (Hepatitis C virus [1]) was 4.52, the pEC50 (Hepatitis C virus [2]) was 4.40 and the CC50 [3] was > 100 µM.

For `O=C(O)/C(O)=C/C(=O)c1cccc(OCc2ccccc2)c1`, the pIC50 [4] was 5.10, the pIC50 (Hepatitis C virus [1]) was 5.34 and the pEC50 (Hepatitis C virus [2]) was 4.52. For the same molecule, the CC50 [3] was > 100 µM.

In the case of `O=C(O)/C(O)=C/C(=O)c1ccc(OCc2ccccc2)cc1`, the pIC50 (Hepatitis C virus [1]) was 5.08, the pEC50 (Hepatitis C virus [2]) was 6.18 and the CC50 [3] was > 100 µM.

Work on `O=C(O)/C(O)=C/C(=O)c1cccc(NCc2ccccc2)c1` yielded a pIC50 [4] of 4.77, a pIC50 (Hepatitis C virus [1]) of 4.55 and a pEC50 (Hepatitis C virus [2]) of 4.55. The CC50 [3] was > 100 µM.
